Entries after “also recorded” stand apart in the source; their conditions may differ.
Test system: patient, diagnosed with an autism spectrum disorder
Assay: Case treatment of a patient with autism spectrum disorder with oral MSM and/or DMSO
Type: in vivo
Description: A patient, diagnosed with an autism spectrum disorder, was treated with a combination of MSM and DMSO, beginning. […] In some embodiments, combination of MSM and DMSO unexpectedly improve one or more symptoms associated with autism, as compared to administration of MSM or DMSO individually. In several embodiments, in addition to the beneficial therapeutic effects, the combination of MSM and DMSO reduces one or more of the side effects typically associated with DMSO administration (e.g., odor, gastrointestinal distress). In some embodiments, these unexpected effects are the result of the continued (e.g., daily) administration of MSM/DMSO, while in other embodiments, these effects are long-term (e.g., persist beyond the period of continued administration of MSM/DMSO). Moreover, in certain embodiments, combinations of MSM and DMSO result in synergistic therapeutic effects for one or more of the symptoms of autism. In some embodiments, these synergistic effects are the result of the continued (e.g., daily) administration of MSM/DMSO, while in other embodiments, these effects are long-term (e.g., persist beyond the period of continued administration of MSM/DMSO).
The patient's symptoms include stimming, nighttime stimming, hyperactive gag reflex, impaired social interaction, a lack of vocalization and communication, delayed success with toilet training, and constipation. DMSO/MSM treatment was initiated for patient. The patient was treated with 4.7 grams of oral MSM solution daily (4½ teaspoons daily of a 15% solution). […] The patient was also treated with 4.7 grams of MSM and 0.025 grams of DMSO in an oral solution (4½ teaspoons daily of 15% MSM and 0.1% DMSO).
The patient was also treated with two short term bolus treatments with increased amounts of DMSO. In addition to the 4.7 g of MSM and 0.025 g of DMSO in an oral solution, the patient received an additional 4.8 g/day of DMSO for a short duration of 10 days (1 teaspoon, 90% oral solution). […] The patient's chronic constipation was also eliminated during these treatment cycles of higher doses of DMSO.
The patient was further treated with an oral formulation comprising 4.7 g of MSM and […] of DMSO. Improvements in communication, social interaction, and constipation continued at this dosage.

[1] = after one month of 4.7 g MSM daily
[2] = additional 4.8 g/day DMSO (90% oral solution) for 10 days on top of 4.7 g MSM and 0.025 g DMSO

| SMILES | frequency of nightly stimming (4.7 g MSM daily (15% solution)) | time until improvement of stimming was noted (4.7 g MSM daily (15% solution)) [weeks] | reduction of daytime stimming (4.7 g oral MSM daily (15% solution)) | incidents of hyperactive gag reflex (4.7 g oral MSM daily (15% solution), within 12 weeks) | reduction of stimming (especially night-time stimming) (4.7 g oral MSM daily (15% solution, 4½ teaspoons), within 12 weeks) | signs known [1] | time engaged in an activity [1] [min] | vocalization [1] | ability to vocalize [2] | chronic constipation [2] | different words vocalized during a session (larger dose of DMSO for 10 days in addition to normal treatment) |
| --- | --- | --- | --- | --- | --- | --- | --- | --- | --- | --- | --- |
| CS(C)(=O)=O [MSM, Methylsulfonylmethane] | reduced from every night to once every two or three weeks | ≤ 12 | about 80% | reduced from multiple times per day to only a few times per month | about 90% | gained an additional sign | 8 to 10 | became more vocal |  |  |  |
| C[S+](C)[O-] [DMSO, Dimethyl sulfoxide] |  |  |  |  |  |  |  |  | improved dramatically | eliminated; also recorded: vastly improved | six |

Source: US20230095199A1, “DIMETHYL SULFOXIDE (DMSO) FORMULATIONS FOR TREATING AUTISM” (Abela Pharmaceuticals, Inc., priority 2010, published 2023)
